According to patent US8119355B2, “Biomarkers for cancer sensitivity and uses thereof” (The UAB Research Foundation, priority 2006, dated 2012):

Experiments:
[1] = tested on: COLO 205 human colon cancer cells; assay: cell viability, ATPLite assay, serum-free condition; assay type: cell-based; settings: for effect on cell viability: 48 h; for cells killed: incubation time (24 or 48 h) not given
Description: (§1) Cell viability analysis: To examine the effect of the serum, the cells (2×10^4) were plated onto well of a 96-well microplate and cultured in complete culture medium at 37° C. for 24 h, washed with serum-free medium, and further incubated in 100 μl of complete medium or serum-free medium at 37° C. for the indicated times. Cell viability was assessed by measurement of cellular ATP levels using ATPlite™-M luminescence assay system (PerkinElmer, Inc., Waltham, Mass.) according to the manufacturer's instructions, and determined as a percentage relative to the luminescence value of cells, which were cultured in complete medium, used as a control. The assay of cell viability was repeated in triplicate experiments. Data were statistically analyzed by the Student t test. In case of the Student t test, if variance of homogeneity was rejected (P<0.05 by F test), the Welch test was applied. Probability values (P-values) less than 0.05 were considered to be statistically significant. All P-values were rounded to four decimal places.
(§2) To evaluate the effect of TRA-8 in serum-free condition, the cells were cultured as described above, washed with serum-free medium and treated with or without TRA-8 or chemotherapeutic agents in 100 μl of serum-free medium at 37° C. for the indicated times. Cell viability was assessed using ATPLite™ assay (PerkinElmer, Inc., Waltham, Mass.) and determined as a percentage relative to the luminescence value of untreated cells used as a control. The assay of cell viability was repeated in triplicate experiments.

[2] = tested on: WiDr human colon cancer cells; assay: as above; assay type: cell-based; settings: for cells killed: incubation time (24 or 48 h) not given
Description: as §1, §2

COLO 205 tumors = assay: COLO 205 xenograft model, tumor size; assay type: in vivo, athymic nude mice; settings: TRA-8 10 mg/kg intraperitoneally days 16 and 20; CPT-11 33 mg/kg intravenously days 17 and 21
Description: Preparation of sera from tumor-bearing mice. COLO 205 cells (1×10^7) were inoculated subcutaneously into athymic nude mice on day 0. The mice were grouped randomly. Each of the groups consisted of 3 mice. TRA-8 (10 mg/kg) was administered intraperitoneally to mice on days 16 and 20. CPT-11 (33 mg/kg) was administered intravenously to mice on days 17 and 21. Length and width of solid tumors were measured twice weekly. Tumor volume (mm^3) was calculated as axb^2/2, where a and b are the length and the width (mm) of the tumor, respectively. Tumor size was determined as a percentage relative to the tumor volume on day 16. Sera were obtained from the tumor-bearing mice on day 23.

CC(=O)O[C@H]1C(=O)[C@@]2(C)[C@H]([C@H](OC(=O)c3ccccc3)[C@]3(O)C[C@H](OC(=O)[C@H](O)[C@@H](NC(=O)c4ccccc4)c4ccccc4)C(C)=C1C3(C)C)[C@]1(OC(C)=O)CO[C@@H]1C[C@@H]2O [paclitaxel]
effect on cell viability ([1]; 1 μM paclitaxel): affected cell viability | cells killed ([1]; 1 μM paclitaxel): 62% | effect on cell viability ([2]; 1 μM paclitaxel, 48 h): affected cell viability | cells killed ([2]; 1 μM paclitaxel): 72%

O=C1[O][Pt]2([NH][C@@H]3CCCC[C@H]3[NH]2)[O]C1=O [oxaliplatin]
effect on cell viability ([1]; 50 μM agent): affected cell viability | cells killed ([1]; 50 μM agent): 41% | effect on cell viability ([2]; 50 μM oxaliplatin, 24 h): significant effect | effect on cell viability ([2]; 50 μM oxaliplatin, 48 h): affected cell viability | cells killed ([2]; 50 μM oxaliplatin): 99%

CCc1c2c(nc3ccc(OC(=O)N4CCC(N5CCCCC5)CC4)cc13)-c1cc3c(c(=O)n1C2)COC(=O)[C@]3(O)CC [CPT-11]
effect on cell viability ([1]; 50 μM agent): significant effect | cells killed ([1]; 50 μM agent): 71% | antitumor efficacy (tumor size) (COLO 205 tumors): not antitumor effects
